Reference: PMC10720262, “Molecular determinants of cross-reactivity and potency by VH3-33 antibodies against the Plasmodium falciparum circumsporozoite protein” (Cell Reports, 2023)
Like-named read-outs stand apart in the source and are kept apart here.

Legend:
KQPA peptide ([…]) [1] = test: SPR (Carterra LSA), KQPA peptide; format: binding, Plasmodium falciparum; details: mAb immobilized on CMD200M chip, peptide 2-fold series, top 8 μg/mL (5.03 μM), 1X HBSTE pH 7.4, 25°C, 1:1 Langmuir model, mean of best triplicate
Excerpt: (§1) Synthetic peptides were custom made by Peptide Speciality Laboratory (PSL), Heidelberg (KQPA ([…]), NPDP ([…]), DND ([…]), NDN ([…]) and NANP3 ([…])), CPC Scientific (NPNA3 ([…]), NANP6 ([…]), KQPA, NPDP and NVDP ([…])) or GenScript (KQPA, NPDP, NANP3, NDN, DND, and NANP5 ([…])). With the exception of NANP6, all other peptides were acetylated at N-termini and amidated at C-termini. NANP6 contained an N-terminal biotin-aminohexanoic acid tag and an unmodified C terminus.
(§2) In each assay, a single analyte peptide antigen (KQPA, NPDP, NVDP, NPNA3 or NANP6) was titrated against the immobilized mAbs. Using 10 mM MES buffer at pH 5.5 with 0.01% Tween 20 as running buffer, the chip was first activated by N-Hydroxysuccinimide (NHS) and 1-Ethyl-3-(3-dimethylaminopropyl) carbodiimide hydrochloride (EDC). Then, PfCSP-specific mAbs were directly immobilized (in 10 mM sodium acetate at pH 4.5) at 10 μg/mL or 5 μg/mL concentrations for 600 s, followed by quenching of unreactive esters using 1 M ethanolamine-HCl at pH 8.5. […]
(§3) The kinetics titration data collected were first pre-processed in the Kinetics (Carterra) software, including reference subtraction, buffer subtraction and data smoothing. The data were then exported and analyzed using the TitrationAnalysis tool developed in-house.[58] […] For antigens with multiple repeats of epitopes, the KD values determined includes avidity effect.

NPDP peptide ([…]) [2] = test: SPR (Carterra LSA), NPDP peptide; format: binding, Plasmodium falciparum; details: mAb immobilized on CMD200M chip, peptide 2-fold series, top 8 μg/mL ([…]), 1X HBSTE pH 7.4, 25°C, 1:1 Langmuir model, mean of best triplicate
Excerpt: as §1, §2, §3

NPNA3 peptide ([…]) = test: SPR (Carterra LSA), NPNA3 peptide; format: binding, Plasmodium falciparum; details: mAb immobilized on CMD200M chip, peptide 2-fold series, top 8 μg/mL (6.41 μM), 1X HBSTE pH 7.4, 25°C, 1:1 Langmuir model, mean of best triplicate
Excerpt: as §1, §2, §3

[3] = target: recombinant full-length PfCSP (strain NF54); test: Biolayer interferometry (BLI) binding to recombinant PfCSP; set-up: species or system Plasmodium falciparum; details: Octet RED96, His-tagged PfCSP 10 μg/mL on Ni-NTA biosensors, 2-fold dilutions of mAb in PBS pH 7.4/0.01% BSA/0.002% Tween 20, 1:1 binding model
Protocol: The resulting plasmid was transfected into FreeStyle HEK293F cells and GFP fluorescence was used to select for single cells via FACS. The selected single cell was expanded and cultured in GIBCO Freestyle 293 Expression Medium and maintained with 200 μg/mL of geneticin (G418 solution; Invivogen). Protein expression was enabled by subculturing the stable cells without antibiotic to a density of 8 x 10^5 cells/mL and harvested after 5–7 days.
After a steady baseline was established, biosensors were dipped into wells containing 2-fold dilutions of each mAb in kinetics buffer. Tips were then immersed back into kinetics buffer for measurement of the dissociation rate. Kinetics data were analyzed using the FortéBio’s Octet Data Analysis software 9.0.0.6, and curves were fitted to a 1:1 binding model.

[4] = test system: Pf sporozoites (traversal of HC-04 cells); test: In vitro sporozoite traversal assay; format: cell-based, Plasmodium falciparum; details: Pf NF54 sporozoites pre-incubated with diluted IgG 30 min, rhodamine dextran, 1 h at 37°C, high content imaging
Protocol: Pf NF54 asexual and sexual blood stage parasites were cultured in a semi-automated culture system as described by Ponnudurai.[69]^,[70] Sporozoites were produced by feeding Anopheles stephensi mosquitos (Sind-Kasur Nijmegen strain) using standard membrane feeding of cultured gametocytes, as was described by Feldmann.[71] Salivary glands were dissected, collected in Leibovitz L15 medium supplemented with 1% PenStrep and homogenized in a homemade glass grinder. Sporozoites were counted in a Bürker-Türk counting chamber using phase-contrast microscopy.
Human hepatoma (HC-04) cells were seeded in microtiter plates and grown to near confluence. Fresh P. falciparum salivary gland sporozoites[56] were isolated from Anopheles stephensi mosquitoes and pre-incubated with diluted IgG for 30 min before adding rhodamine dextran. Following incubation for 1 h at 37°C, cell nuclei were stained with DAPI. Fluorescence levels of traversed cells were quantitated using a high content automated imager.

[5] = test system: transgenic Plasmodium berghei sporozoites expressing PfCSP (PbPfCSP); test: Liver burden reduction assay; format: in vivo, Plasmodium berghei in C57BL/6 mice; details: C57BL/6 mice, 100 μg mAb i.v., 16 h later 2,000 PbPfCSP sporozoites i.v., bioluminescence 42 h after challenge; relative to naive mice; n=5
Excerpt: P. berghei transgenic parasites expressing PfCSP, GFP and luciferase were generated as previously described.[57] Briefly, P. berghei, strain ANKA 676m1c11, which expresses GFP and luciferase were obtained from MR4 (ATCC). Parasites were transfected to replace the CSP gene with a modified gene consisting of the CSP of Pf. To obtain sporozoites, Anopheles stephensi mosquitos were fed on mice infected with the parasite. 19–22 days later salivary glands from the infected mosquitos were obtained and sporozoites were isolated to infect mice.
Parasite challenge to measure liver burden was assessed as previously described.[57] Briefly, 6-8-week-old C57BL/6 female mice were injected intravenously with 100 μg of the respective mAb. Mice were challenged 16 h later with 2,000 PfCSP-expressing transgenic Pb sporozoites delivered i.v. in HBSS-2% FBS. Mice were injected intraperitoneally with 100 μL of D-luciferin at 30 mg/mL 42 h after sporozoite challenge, anesthetized with isoflurane and imaged in the IVIS Spectrum Imaging System to measure the bioluminescence expressed by the transgenic parasite.

KQPA peptide ([…]) [6] = test: Peptide ELISA (AUC), KQPA; format: binding, Plasmodium falciparum
Protocol: (§4) With the exception of NANP6, all other peptides were acetylated at N-termini and amidated at C-termini. NANP6 contained an N-terminal biotin-aminohexanoic acid tag and an unmodified C terminus.
(§5) Antigen ELISAs were performed as previously described.[21]^,[25] In brief, high-binding 384-well polystyrene plates (Corning) were coated overnight at 4°C with 2 μg/mL of the indicated peptides synthesized at PSL, Heidelberg. Plates were washed three times with 0.05% Tween 20 in PBS, blocked with 50 μL of 1% BSA in PBS for 1 h at room temperature (RT), and washed again. For analysis of mAbs, 15 μL/well of serially diluted mAbs (starting concentration 1.0 μg/mL, 1 in 4 dilution for 4 steps) were incubated for 2 h at RT. Wells were washed six times and incubated with goat anti-human IgG-HRP at a 1:1000 dilution (Jackson ImmunoResearch) in PBS with 1% BSA for 1 h. Wells were washed again and one-step ABTS substrate (RT, 20 μL/well; Roche) and 1× KPL ABTS peroxidase stop solution (RT, 20 μL/well; SeraCare Life Sciences) were used for detection. Area under the ELISA curve (AUC) was calculated using GraphPad Prism 7.04 (GraphPad).

NANP3 peptide ([…]) [7] = test: Peptide ELISA (AUC), NANP3; format: binding, Plasmodium falciparum
Protocol: as §4, §5

DND peptide ([…]) [8] = test: Peptide ELISA (AUC), DND; format: binding, Plasmodium falciparum; details: ELISA Area Under the Curve
Protocol: as §4, §5

NDN peptide ([…]) = test: Peptide ELISA (AUC), NDN; format: binding, Plasmodium falciparum
Protocol: as §4, §5

NPDP peptide ([…]) [9] = test: Peptide ELISA (AUC), NPDP; format: binding, Plasmodium falciparum; details: plates coated with 2 μg/mL peptide; mAb from 1.0 μg/mL, 1 in 4 dilution, 4 steps; area under ELISA curve; mean of three independent experiments
Protocol: as §4, §5

NANP3 peptide ([…]) [10] = test: SPR (Biacore T200), NANP3 peptide; format: binding, Plasmodium falciparum
Protocol: as §4
(§6) Affinity of 56 VH3-33 mAbs to DND and NANP3 peptides were measured using SPR in Biacore Cytiva T200, as described before.[21] In brief, series S sensor chip CM5 (GE Healthcare) was docked in the instrument and 10 mM HEPES (pH 7.4) containing 200 mM NaCl, 0.02% Tween 20 and 0.05% BSA was used as running buffer. Anti-human IgG from human antibody capture kit (GE Healthcare) was immobilized in both flow cells through amine coupling following manufacturer’s instructions. […] Upon stabilizing flow cells with running buffer for 20 min, indicated peptides synthesized at PSL Heidelberg were injected at 0, 0.015, 0.09, 0.55, 3.3 and 20 μM concentration at a flow rate of 30 μL/min. Association and dissociation of the peptides were measured at 25°C for 60 s and 180 s, respectively. 3M MgCl2 was used for the regeneration of both flow cells. 1:1 binding model or steady-state kinetic analysis in the Biacore T200 software V2.0 was used for fitting the data and obtaining kinetic rates and constant.

NANP6 peptide ([…]) = test: SPR (Carterra LSA), NANP6 peptide; format: binding, Plasmodium falciparum; details: mAb immobilized on CMD200M chip, peptide 2-fold series, top 8 μg/mL (2.92 μM), 1X HBSTE pH 7.4, 25°C, 1:1 Langmuir model, mean of best triplicate, KD includes avidity effect for antigens with multiple repeats of epitopes
Excerpt: as §1, §2, §3

DND peptide ([…]) [11] = test: SPR (Biacore T200), DND peptide; format: binding, Plasmodium falciparum
Protocol: as §4, §6

[12] = plates coated with 2 μg/mL peptide, mAb from 1.0 μg/mL, 1 in 4 dilution, 4 steps, area under ELISA curve, mean of three independent experiments

Ky311: VH3-33/Vk3-11 anti-PfCSP mAb from Kymouse platform, expressed as human IgG1; MGG4-like binding mode
Kd (KQPA peptide ([…]) [1]): 427 nM
Kd (NPDP peptide ([…]) [2]): 3.75 nM
Kd (NPNA3 peptide ([…])): 1.07 nM
Kd [3]: 7.39 nM
Traversal Inhibition IC50 [4]: 0.664 µg/mL
Liver Burden Assay Reduction [5]: 75%

QVQLVESGGGVVQPGGSLRLSCAASGFTFSGSGMHWVRHAPGKGLEWVAIIWYDGSNKFYADSVKGRFTISRDNSRNTLYLQMNSLRAEDTAVYYCARAYVSGNYGDKYGMDVWGQGTTVTVSS [CL-532151]
KQPA AUC (KQPA peptide ([…]) [6]; ELISA Area Under the Curve, KQPA peptide): 1.36
NANP3 AUC (NANP3 peptide ([…]) [7]; ELISA Area Under the Curve, NANP3 peptide): 1.84
DND AUC (DND peptide ([…]) [8]): 2.23
NDN AUC (NDN peptide ([…]); ELISA Area Under the Curve, NDN peptide): 0.29

mAb CIS43: previously characterized NPDP-specific human anti-PfCSP mAb (IGHV1-3) [reference compound]
ELISA AUC KQPA (KQPA peptide ([…]) [6]; [12]): 0.10
ELISA AUC NPDP (NPDP peptide ([…]) [9]): 1.50
ELISA AUC NANP3 (NANP3 peptide ([…]) [7]; [12]): 0.20
ELISA AUC NDN (NDN peptide ([…]); [12]): 0.20
Kd (NANP3 peptide ([…]) [10]; Biacore T200, mAb captured via anti-human IgG on CM5, peptide 0-20 μM, 25°C, 1:1 binding model or steady-state analysis, single measurement for sample mAbs, three independent measurements for previously characterized mAbs, read-out: SPR NANP3 KD): 1720 nM
SPR KQPA KD (KQPA peptide ([…]) [1]): Non-binder
Kd (NPDP peptide ([…]) [2]): 19.1 nM
Kd (NPNA3 peptide ([…])): 9430 nM
Kd (NANP6 peptide ([…])): 54.9 nM
Kd [3]: 15.6 nM
Traversal Inhibition IC50 [4]: 0.362 µg/mL

QIQLVESGGGVVQPGRSLRLSCAASGFTFSTYGMHWVRQAPGKGLEWVAVIWYDGSNKYYADSVQGRFTISRDNSKNTLYLQMNSLRAEDTAIYYCTTVGPIPFDYWGQGTLVTVSS [CL-514716]
DND KD (M) (DND peptide ([…]) [11]): Non-binder
NANP3 KD (M) (NANP3 peptide ([…]) [10]; SPR, NANP3 peptide): Non-binder

LVQLVESGGGVVQPGRSLRLSCAASGFTFSSSGMHWVRQAPGKGLEWVAIIWYDGSNKFYADSVKGRFTISRDNSKNTLYLQMNSLRAEDTAVYYCARAYVSGSHGDKYGMDVWGQGTTVTVSS [CL-531912]
Kd (NANP3 peptide ([…]) [10]; SPR, NANP3 peptide, read-out: NANP3 KD): 55 nM
